Literature values, collected in patent US7964610B2, “Buprenorphine derivatives and uses thereof” (Reckitt Benckiser Healthcare (UK) Limited, priority 2006, dated 2011).

## CO[C@]12CCC3(C[C@@H]1[C@](C)(O)C(C)(C)C)[C@H]1Cc4ccc(O)c5c4[C@@]3(CCN1CC1CC1)[C@H]2O5 [buprenorphine]
Oral (swallowed)
  bioavailability when taken orally: ~5%
sublingual
  bioavailability when absorbed sublingually: approximately fifty
